Experimental findings from ChEMBL document CHEMBL1159166, “Chemoselective thioacylation of amino acids. Preparation of the four monothiothymopentin analogs and their biological activity” (1993) are described below.

Each structure is given as a SMILES string. Where a SMILES comes first, the peptide text is derived from it.

For the assay, the species on record is Bos taurus. The assay is described as follows: Electromyographic activity is measured as mean of the ratio of the height of the muscle action potential generated by the tenth impulse to the initial impulse in bovine thymus extracts at 10 mg. The class given is functional, Muscle tissue.
Regarding `CC(C)[C@H](NC(=O)[C@H](CC(=O)O)NC(=O)[C@H](CCCCN)/N=C(\S)[C@@H](N)CCCN=C(N)N)C(=O)N[C@@H](Cc1ccc(O)cc1)C(=O)O`, the Mean came to 0.85. Under `CC(C)[C@H](/N=C(\S)[C@H](CC(=O)O)NC(=O)[C@H](CCCCN)NC(=O)[C@@H](N)CCCN=C(N)N)C(=O)N[C@@H](Cc1ccc(O)cc1)C(=O)O` stands 0.89.

Regarding `CC(C)[C@H](NC(=O)[C@H](CC(=O)O)NC(=O)[C@H](CCCCN)NC(=O)[C@@H](N)CCCN=C(N)N)/C(S)=N/[C@@H](Cc1ccc(O)cc1)C(=O)O`, the Mean was determined as 0.84. The result for `CC(C)[C@H](NC(=O)[C@H](CC(=O)O)/N=C(\S)[C@H](CCCCN)NC(=O)[C@@H](N)CCCN=C(N)N)C(=O)N[C@@H](Cc1ccc(O)cc1)C(=O)O` reads 0.83; that for `CC(C)[C@H](NC(=O)[C@H](CC(=O)O)NC(=O)[C@H](CCCCN)NC(=O)[C@@H](N)CCCN=C(N)N)C(=O)N[C@@H](Cc1ccc(O)cc1)C(=O)O` [THYMOPENTIN] (H-RKDVY-OH), 0.83.
